Target: T1, hmGluR4 (Homo sapiens, UniProt Q14833)
T1 construct: host or cells: HEK293T
Test: HEK-293 mGluR4 cells cAMP assay with EC20 L-Glutamate (HTRF)
Format: cell-based
Settings: not given
Procedure, shortened: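 PAM mode in mGluR4 HEK293T suspension cells, glutamine-starved overnight; 10 μM forskolin (final) with EC20 L-glutamate (2.3 μM), 2000 cells/well, 30 min at 37 °C. cAMP measured by two-step HTRF after 60 min at room temperature. Basal control EC20 glutamate; EC100 400 μM glutamate (2×).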

T1 sequence (Q14833 33-912): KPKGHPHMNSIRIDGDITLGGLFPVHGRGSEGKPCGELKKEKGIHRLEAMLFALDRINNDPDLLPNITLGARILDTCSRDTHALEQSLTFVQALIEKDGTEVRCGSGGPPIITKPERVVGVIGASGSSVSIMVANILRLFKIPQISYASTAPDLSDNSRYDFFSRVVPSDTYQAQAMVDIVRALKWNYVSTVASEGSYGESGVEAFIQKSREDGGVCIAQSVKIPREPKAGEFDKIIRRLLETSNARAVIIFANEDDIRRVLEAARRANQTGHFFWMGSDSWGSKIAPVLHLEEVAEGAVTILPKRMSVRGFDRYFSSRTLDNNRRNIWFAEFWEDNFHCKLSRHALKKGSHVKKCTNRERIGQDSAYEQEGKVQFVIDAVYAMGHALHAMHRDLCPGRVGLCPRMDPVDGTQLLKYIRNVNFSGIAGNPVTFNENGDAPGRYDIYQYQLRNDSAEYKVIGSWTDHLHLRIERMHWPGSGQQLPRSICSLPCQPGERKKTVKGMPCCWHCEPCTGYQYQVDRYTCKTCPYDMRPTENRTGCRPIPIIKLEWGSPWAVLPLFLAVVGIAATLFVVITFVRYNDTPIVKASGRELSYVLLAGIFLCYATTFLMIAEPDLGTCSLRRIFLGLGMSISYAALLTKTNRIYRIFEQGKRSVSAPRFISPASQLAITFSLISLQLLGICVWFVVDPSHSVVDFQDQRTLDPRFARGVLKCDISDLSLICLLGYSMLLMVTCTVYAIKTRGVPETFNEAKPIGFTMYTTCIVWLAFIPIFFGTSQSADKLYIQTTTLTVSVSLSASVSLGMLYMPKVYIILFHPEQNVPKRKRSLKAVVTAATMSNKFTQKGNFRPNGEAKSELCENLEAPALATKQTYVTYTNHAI

Compound | EC50
COc1ccc(N2C(=O)c3ccccc3CC23CCN(Cc2ccc(F)c(F)c2)CC3)cc1 [Compound 126, 1′-(3,4-difluorobenzyl)-2-(4-methoxyphenyl)-2,4-dihydro-1H-spiro[isoquinoline-3,4′-piperidin]-1-one] | 1000 to 10000 nM

Same assay, conditions: positive allosteric activity at EC20 L-Glutamate, 10 μM Forskolin, HEK293T mGluR4 cells, cAMP HTRF; read-out: hrmGluR4/HEK293T-hmGluR4 (EC50)

Compound | EC50
COc1ccc(N2C(=O)c3ccccc3NC23CN(Cc2c(F)cccc2F)C3)cc1 [Compound 95, 1-(2,6-Difluorobenzyl)-3′-(4-methoxyphenyl)-1′H-spiro[azetidine-3,2′-quinazolin]-4′(3′H)-one] | 1000 to 10000 nM
COc1ccc(N2C(=O)c3ccccc3NC23CCN(Cc2cccc(C(F)(F)F)c2)CC3)cc1 [Compound 96, 3′-(4-Methoxyphenyl)-1-(3-(trifluoromethyl)benzyl)-1′H-spiro[piperidine-4,2′-quinazolin]-4′(3′H)-one] | 1000 to 10000 nM
O=C1c2ccc(Br)cc2NC2(CCN(Cc3ccncc3)CC2)N1c1ccc(OC(F)(F)F)cc1 [Compound 97, 7′-Bromo-1-(pyridin-4-ylmethyl)-3′-(4-(trifluoromethoxy)phenyl)-1′H-spiro[piperidine-4,2′-quinazolin]-4′(3′H)-one] | 1000 to 10000 nM
COc1ccc(N2C(=O)c3ccccc3NC23CN(Cc2ccc(Cl)s2)C3)cc1 [Compound 98, 1-((5-Chlorothiophen-2-yl)methyl)-3′-(4-methoxyphenyl)-1′H-spiro[azetidine-3,2′-quinazolin]-4′(3′H)-one] | 1000 to 10000 nM
COCCOC(=O)c1ccc2c(c1)NC1(CCN(Cc3ccc(F)c(F)c3)CC1)N(c1ccc(OC(F)(F)F)cc1)C2=O [Compound 99, 2-Methoxyethyl 1-(3,4-difluorobenzyl)-4′-oxo-3′-(4-(trifluoromethoxy)phenyl)-3′,4′-dihydro-1′H-spiro[piperidine-4,2′-quinazoline]-7′-carboxylate] | 1000 to 10000 nM
COc1ccc(N2C(=O)c3ccc(OC)cc3NC23CCN(Cc2cccc(C#N)c2)CC3)cc1 [Compound 100, 3-((7′-Methoxy-3′-(4-methoxyphenyl)-4′-oxo-3′,4′-dihydro-1′H-spiro[piperidine-4,2′-quinazolin]-1-yl)methyl)benzonitrile] | 1000 to 10000 nM
COc1ccc(N2C(=O)c3ccccc3NC23CN(Cc2ccc(F)cc2)C3)cc1 [Compound 101, 1-(4-Fluorobenzyl)-3′-(4-methoxyphenyl)-1′H-spiro[azetidine-3,2′-quinazolin]-4′(3′H)-one] | 1000 to 10000 nM
O=C1c2ccc(Br)cc2NC2(CCN(Cc3ccc(F)c(F)c3)CC2)N1c1ccc(OC(F)(F)F)c(Cl)c1 [Compound 102, 7′-Bromo-3′-(3-chloro-4-(trifluoromethoxy)phenyl)-1-(3,4-difluorobenzyl)-1′H-spiro[piperidine-4,2′-quinazolin]-4′(3′H)-one] | 1000 to 10000 nM
O=C1c2ccc(Br)cc2NC2(CCN(Cc3ccccn3)CC2)N1c1ccc(OC(F)(F)F)cc1 [Compound 103, 7′-Bromo-1-(pyridin-2-ylmethyl)-3′-(4-(trifluoromethoxy)phenyl)-1′H-spiro[piperidine-4,2′-quinazolin]-4′(3′H)-one] | 1000 to 10000 nM
COc1ccc(N2C(=O)c3ccccc3NC23CCN(Cc2cccc(Cl)c2)CC3)cc1 [Compound 104, 1-(3-Chlorobenzyl)-3′-(4-methoxyphenyl)-1′H-spiro[piperidine-4,2′-quinazolin]-4′(3′H)-one] | 1000 to 10000 nM
COc1ccc(N2C(=O)c3ccccc3NC23CCN(Cc2cc(C)cc(C)c2)CC3)cc1 [Compound 105, 1-(3,5-Dimethylbenzyl)-3′-(4-methoxyphenyl)-1′H-spiro[piperidine-4,2′-quinazolin]-4′(3′H)-one] | 1000 to 10000 nM
COCCOc1ccc(N2C(=O)c3ccc(F)cc3NC23CCN(Cc2ccc(F)c(F)c2)CC3)cc1 [Compound 106, 1-(3,4-difluorobenzyl)-7′-fluoro-3′-(4-(2-methoxyethoxyl)phenyl)-1′H-spiro[piperidine-4,2′-quinazolin]-4′(3′H)-one] | 1000 to 10000 nM
O=C1c2ccc(Br)cc2NC2(CCN(C(c3ccc(F)c(F)c3)C(F)(F)F)CC2)N1c1ccc(OC(F)(F)F)cc1 (stereo not drawn) [Compound 107, 7′-Bromo-1-(1-(3,4-difluorophenyl)-2,2,2-trifluoroethyl)-3′-(4-(trifluoromethoxy)phenyl)-1′H-spiro[piperidine-4,2′-quinazolin]-4′(3′H)-one] | < 1000 nM
COc1ccc(N2C(=O)c3ccc(Br)cc3OC23CCN(Cc2ccc(F)c(F)c2)CC3)cc1 [Compound 108, 7-Bromo-1′-(3,4-difluorobenzyl)-3-(4-methoxyphenyl)spiro[benzo[e][1,3]oxazine-2,4′-piperidin]-4(3H)-one] | 1000 to 10000 nM
COc1ccc(N2C(=O)c3ccccc3NC23CCN(Cc2ccccc2C)CC3)cc1 [Compound 109, 3′-(4-Methoxyphenyl)-1-(2-methylbenzyl)-1′H-spiro[piperidine-4,2′-quinazolin]-4′(3′H)-one] | 1000 to 10000 nM
O=C1c2ccc(Br)cc2NC2(CCN(Cc3cnc(Br)s3)CC2)N1c1ccc(OC(F)(F)F)cc1 [Compound 110, 7′-Bromo-1-((2-bromothiazol-5-yl)methyl)-3′-(4-(trifluoromethoxy)phenyl)-1′H-spiro[piperidine-4,2′-quinazolin]-4′(3′H)-one] | 1000 to 10000 nM

Compound | EC50
COc1ccc(N2C(=O)c3ccccc3NC23CCN(Cc2ccccc2Cl)CC3)cc1 [Compound 111, 1-(2-Chlorobenzyl)-3′-(4-methoxyphenyl)-1′H-spiro[piperidine-4,2′-quinazolin]-4′(3′H)-one] | 1000 to 10000 nM
CCc1ccc(CN2CC3(C2)Nc2ccccc2C(=O)N3c2ccc(OC)cc2)cc1 [Compound 112, 1-(4-Ethylbenzyl)-3′-(4-methoxyphenyl)-1′H-spiro[azetidine-3,2′-quinazolin]-4′(3′H)-one] | 1000 to 10000 nM
Cc1ccc(CN2CCC3(CC2)Nc2cc(Br)ccc2C(=O)N3c2ccc(OC(F)(F)F)cc2)o1 [Compound 113, 7′-Bromo-1-((5-methylfuran-2-yl)methyl)-3′-(4-(trifluoromethoxy)phenyl)-1′H-spiro[piperidine-4,2′-quinazolin]-4′(3′H)-one] | 1000 to 10000 nM
COc1ccc(N2C(=O)c3ccccc3NC23CCN(Cc2ccc(F)cc2)CC3)cc1 [Compound 114, 1-(4-Fluorobenzyl)-3′-(4-methoxyphenyl)-1′H-spiro[piperidine-4,2′-quinazolin]-4′(3′H)-one] | 1000 to 10000 nM
COc1cccc(N2C(=O)c3ccccc3NC23CCN(Cc2cc(Cl)ccc2Cl)CC3)c1 [Compound 115, 1-(2,5-Dichlorobenzyl)-3′-(3-methoxyphenyl)-1′H-spiro[piperidine-4,2′-quinazolin]-4′(3′H)-one] | 1000 to 10000 nM
COc1ccc(N2C(=O)c3ccccc3NC23CCN(Cc2ccccc2C#N)CC3)cc1 [Compound 116, 2-((3′-(4-Methoxyphenyl)-4′-oxo-3′,4′-dihydro-1′H-spiro[piperidine-4,2′-quinazolin]-1-yl)methyl)benzonitrile] | 1000 to 10000 nM
COc1ccc(N2C(=O)c3ccc(-c4ccc(CN(C)C)o4)cc3NC23CCN(Cc2ccc(F)c(F)c2)CC3)cc1 [Compound 117, 1-(3,4-Difluorobenzyl)-7′-(5-((dimethylamino)methyl)furan-2-yl)-3′-(4-methoxyphenyl)-1′H-spiro[piperidine-4,2′-quinazolin]-4′(3′H)-one] | 1000 to 10000 nM
O=C1c2ccc(Br)cc2NC2(CCN(Cc3cccnc3)CC2)N1c1ccc(OC(F)(F)F)cc1 [Compound 118, 7′-Bromo-1-(pyridin-3-ylmethyl)-3′-(4-(trifluoromethoxy)phenyl)-1′H-spiro[piperidine-4,2′-quinazolin]-4′(3′H)-one] | 1000 to 10000 nM
COc1ccc(N2C(=O)c3ccccc3NC23CN(Cc2c(F)cc(F)cc2F)C3)cc1 [Compound 119, 3′-(4-Methoxyphenyl)-1-(2,4,6-trifluorobenzyl)-1′H-spiro[azetidine-3,2′-quinazolin]-4′(3′H)-one] | 1000 to 10000 nM
Cn1cccc1CN1CCC2(CC1)Nc1cc(Br)ccc1C(=O)N2c1ccc(OC(F)(F)F)cc1 [Compound 120, 7′-Bromo-1-((1-methyl-1H-pyrrol-2-yl)methyl)-3′-(4-(trifluoromethoxy)phenyl)-1′H-spiro[piperidine-4,2′-quinazolin]-4′(3′H)-one] | 1000 to 10000 nM
COCCOc1ccc2c(c1)NC1(CCN(Cc3ccc(F)c(F)c3)CC1)N(c1ccc(OC(F)(F)F)cc1)C2=O [Compound 121, 1-(3,4-Difluorobenzyl)-7′-(2-methoxyethoxy)-3′-(4-(trifluoromethoxy)phenyl)-1′H-spiro[piperidine-4,2′-quinazolin]-4′(3′H)-one] | 1000 to 10000 nM
COc1ccc(N2C(=O)c3cc(O)ccc3NC23CCN(Cc2ccc(F)c(F)c2)CC3)cc1 [Compound 122, 1-(3,4-Difluorobenzyl)-6′-hydroxy-3′-(4-methoxyphenyl)-1′H-spiro[piperidine-4,2′-quinazolin]-4′(3′H)-one] | 1000 to 10000 nM
COCCOc1ccc(N2C(=O)c3ccc(F)cc3NC23CN(Cc2ccc(Cl)cc2)C3)cc1 [Compound 123, 1-(4-Chlorobenzyl)-7′-fluoro-3′-(4-(2-methoxyethoxyl)phenyl)-1′H-spiro[azetidine-3,2′-quinazolin]-4′(3′H)-one] | 1000 to 10000 nM
COCCOc1ccc(N2C(=O)c3ccc(F)cc3NC23CN(Cc2ccccc2Cl)C3)cc1 [Compound 124, 1-(2-Chlorobenzyl)-7′-fluoro-3′-(4-(2-methoxyethoxyl)phenyl)-1′H-spiro[azetidine-3,2′-quinazolin]-4′(3′H)-one] | 1000 to 10000 nM
O=C(Nc1ccc(OC(F)(F)F)cc1)c1ccc(Br)cc1O [Compound 125, 4-Bromo-2-hydroxy-N-(4-trifluoromethoxy-phenyl)-benzamide] | < 1000 nM
O=C1c2ccc(F)cc2CC2(CCN(Cc3ccc(F)c(F)c3)CC2)N1c1ccc(OC(F)(F)F)cc1 [Compound 127, 1′-(3,4-difluorobenzyl)-6-fluoro-2-(4-(trifluoromethoxy)phenyl)-2,4-dihydro-1H-spiro[isoquinoline-3,4′-piperidin]-1-one] | 1000 to 10000 nM

Source: patent US9708321B2, “Spiro-quinazolinone derivatives and their use as positive allosteric modulators of mGluR4” (Merck Patent GmbH, priority 2013, dated 2017)
